This test addresses SAE (Homo sapiens (Human), UniProt Q9UBT2). In words: In vitro inhibitory activity assay against SAE (SUMO-2/3 immunofluorescence in HCT116 cells). To be noted: 6 h incubation, read-out: SUMO IF IC50. It is filed as cell-based. As to the method:
HCT116 cells were seeded into a 96-well black transparent bottom plate at about 20000/well with 90 μL per well. The cells were incubated at 37° C. overnight for 24 h. The test compounds were 10-fold diluted to give a final concentration, and 10 μL of the diluted compounds was added to each well of the cell culture plate. The mixture was incubated at 37° C. for 6 h. The cells were then washed gently, the culture medium was discarded, and the cells were washed once with 200 μL of 0.1% o PBST. 50 μL of 4% PFA was added to each well, and the cells were immobilized at room temperature for 20 min, and then washed with PBS 2-3 times. 50 μL of 0.2% o Triton X-100 was added to each well, and the cells were left to stand at room temperature for 15 min and washed with 0.1% PBST 3 times. 100 uL of 3% BSA (0.6 g BSA+20 mL PBS) was added to each well, and the mixture was blocked at 37° C. for 30 min. After the blocking was completed, the liquid was removed and a primary antibody (SUMO-2/3 (181H8) Rabbit mAb, 1:400 dilution) was prepared with […]. 30 μL of the diluted primary antibody was added to each well, and the mixture was incubated at 4° C. overnight. The cells were washed 3 times with 200 μL of 0.1% o PBST. A FITC secondary antibody (Fluorescein (FITC)-conjugated Affinipure Goat Anti-Rabbit IgG (H+L), 1:300 dilution) was further prepared with 1% o BSA, and 40 μL of the diluted secondary antibody was added to each well. The mixture was incubated at room temperature in the dark for 2 h, and then the cells were washed 4 times with 0.1% PBST. The fluorescence signal of the sample was detected and compared to the DMSO group, and the inhibition rate and IC50 were calculated.

Where two headings read alike, the source gives them in different places. Some results are limits rather than exact numbers.

Broadly, the IC50 is the concentration that inhibits the measured activity by half.

Chain of SAE (Q9UBT2 whole entry): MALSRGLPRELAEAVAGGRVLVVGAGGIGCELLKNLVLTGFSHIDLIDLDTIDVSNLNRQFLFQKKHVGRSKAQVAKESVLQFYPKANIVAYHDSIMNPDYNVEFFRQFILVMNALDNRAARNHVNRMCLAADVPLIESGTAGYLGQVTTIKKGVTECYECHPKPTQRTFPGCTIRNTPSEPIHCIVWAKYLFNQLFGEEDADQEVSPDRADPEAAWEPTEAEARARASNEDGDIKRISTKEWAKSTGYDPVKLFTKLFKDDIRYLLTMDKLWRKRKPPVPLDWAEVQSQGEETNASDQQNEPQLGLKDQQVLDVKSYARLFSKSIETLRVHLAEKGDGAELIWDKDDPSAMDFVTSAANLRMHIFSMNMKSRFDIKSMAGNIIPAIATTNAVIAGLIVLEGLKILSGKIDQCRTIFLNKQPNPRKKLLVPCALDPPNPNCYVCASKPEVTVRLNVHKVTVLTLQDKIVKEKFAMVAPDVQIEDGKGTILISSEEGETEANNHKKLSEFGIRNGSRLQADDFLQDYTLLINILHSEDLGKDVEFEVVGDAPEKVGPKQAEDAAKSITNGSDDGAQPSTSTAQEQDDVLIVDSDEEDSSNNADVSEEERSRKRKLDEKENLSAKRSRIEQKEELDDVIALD
Chain of SAE (Q9UBE0 whole entry partner): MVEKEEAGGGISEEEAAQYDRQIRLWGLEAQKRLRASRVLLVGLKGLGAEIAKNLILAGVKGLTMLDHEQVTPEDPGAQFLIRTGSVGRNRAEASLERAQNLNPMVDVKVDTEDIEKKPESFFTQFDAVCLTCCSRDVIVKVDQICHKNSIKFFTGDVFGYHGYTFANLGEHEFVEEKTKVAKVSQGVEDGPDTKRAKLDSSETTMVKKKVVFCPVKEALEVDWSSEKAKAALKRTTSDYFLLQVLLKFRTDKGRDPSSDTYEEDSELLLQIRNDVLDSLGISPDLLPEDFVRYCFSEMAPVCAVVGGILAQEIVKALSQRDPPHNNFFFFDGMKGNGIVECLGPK

Take `NS(=O)(=O)OC[C@H]1C[C@@H](Nc2ncncc2C(=O)c2cc3c(s2)CSC[C@]32NCCc3ccc(Cl)cc32)C[C@@H]1O` [Compound 93]: the IC50 (numeric values) is 28.9 nM.
For the compound `NS(=O)(=O)OC[C@H]1C[C@@H](Nc2ncncc2C(=O)c2cc3c(s2)COCC32NCCc3ccc(Cl)c(Cl)c32)C[C@@H]1O` (some centres unmarked) [Compound 94], the IC50 (class symbols) fell in the range of 50 to 200 nM.
On the same count and under the same terms, the result for `NS(=O)(=O)OC[C@H]1C[C@@H](Nc2ncncc2C(=O)c2cc3c(s2)COC[C@@]32NCCc3ccc(Cl)c(Cl)c32)C[C@@H]1O` [Compound 95] reads over 200 nM; that for `NS(=O)(=O)OC[C@H]1C[C@@H](Nc2ncncc2C(=O)c2cc3c(s2)COC[C@]32NCCc3ccc(Cl)c(Cl)c32)C[C@@H]1O` [Compound 96], 50 to 200 nM.
In the case of `NS(=O)(=O)OC[C@H]1C[C@@H](Nc2ncncc2C(=O)c2cc3c(s2)COCC32NCCc3cc(Cl)c(Cl)cc32)C[C@@H]1O` (some centres unmarked) [Compound 97], the 50% inhibitory concentration (IC50) (class symbols) lay in the range of 50 to 200 nM.
The same measure, in the same setting: the result for `NS(=O)(=O)OC[C@H]1C[C@@H](Nc2ncncc2C(=O)c2cc3c(s2)COC[C@@]32NCCc3cc(Cl)c(Cl)cc32)C[C@@H]1O` [Compound 98] reads over 200 nM.
Same read-out and setting: the same measure for `NS(=O)(=O)OC[C@H]1C[C@@H](Nc2ncncc2C(=O)c2cc3c(s2)COC[C@]32NCCc3cc(Cl)c(Cl)cc32)C[C@@H]1O` [Compound 99]: 50 to 200 nM; for `NS(=O)(=O)OC[C@H]1C[C@@H](Nc2ncncc2C(=O)c2cc3c(s2)COCC32NCCc3c(Cl)cc(Cl)cc32)C[C@@H]1O` (some centres unmarked) [Compound 100]: 50 to 200 nM.
The same measure, in the same setting: the same measure for `NS(=O)(=O)OC[C@H]1C[C@@H](Nc2ncncc2C(=O)c2cc3c(s2)COC[C@@]32NCCc3c(Cl)cc(Cl)cc32)C[C@@H]1O` [Compound 101]: over 200 nM.
For the compound `NS(=O)(=O)OC[C@H]1C[C@@H](Nc2ncncc2C(=O)c2cc3c(s2)COC[C@]32NCCc3c(Cl)cc(Cl)cc32)C[C@@H]1O` [Compound 102], the half-maximal inhibitory concentration (IC50) (class symbols) is 50 to 200 nM.
On the same count and under the same terms, the result for `NS(=O)(=O)OC[C@H]1C[C@@H](Nc2ncncc2C(=O)c2cc3c(s2)COCC32NCCc3ccc(Cl)c(F)c32)C[C@@H]1O` (some centres unmarked) [Compound 103] reads 50 to 200 nM; that for `NS(=O)(=O)OC[C@H]1C[C@@H](Nc2ncncc2C(=O)c2cc3c(s2)COC[C@@]32NCCc3ccc(Cl)c(F)c32)C[C@@H]1O` [Compound 104], over 200 nM.
Same read-out and setting: the result for `NS(=O)(=O)OC[C@H]1C[C@@H](Nc2ncncc2C(=O)c2cc3c(s2)COC[C@]32NCCc3ccc(Cl)c(F)c32)C[C@@H]1O` [Compound 105] reads 50 to 200 nM.
`NS(=O)(=O)OC[C@H]1C[C@@H](Nc2ncncc2C(=O)c2cc3c(s2)COCC32NCCc3cc(F)c(Cl)cc32)C[C@@H]1O` (some centres unmarked) [Compound 106]: the IC50 (class symbols) was in the range of 50 to 200 nM.
Consider `NS(=O)(=O)OC[C@H]1C[C@@H](Nc2ncncc2C(=O)c2cc3c(s2)COC[C@@]32NCCc3cc(F)c(Cl)cc32)C[C@@H]1O` [Compound 107], for which the IC50 (class symbols) is over 200 nM.
Still for that read-out and setting: the same measure for `NS(=O)(=O)OC[C@H]1C[C@@H](Nc2ncncc2C(=O)c2cc3c(s2)COC[C@]32NCCc3cc(F)c(Cl)cc32)C[C@@H]1O` [Compound 108]: 50 to 200 nM; for `NS(=O)(=O)OC[C@H]1C[C@@H](Nc2ncncc2C(=O)c2cc3c(s2)COCC32NCCc3c(F)cc(Cl)cc32)C[C@@H]1O` (some centres unmarked) [Compound 109]: 50 to 200 nM; for `NS(=O)(=O)OC[C@H]1C[C@@H](Nc2ncncc2C(=O)c2cc3c(s2)COC[C@@]32NCCc3c(F)cc(Cl)cc32)C[C@@H]1O` [Compound 110]: over 200 nM.
For `NS(=O)(=O)OC[C@H]1C[C@@H](Nc2ncncc2C(=O)c2cc3c(s2)COC[C@]32NCCc3c(F)cc(Cl)cc32)C[C@@H]1O` [Compound 111], the IC50 (class symbols) is 50 to 200 nM.
As for `CN1Cc2sc(C(=O)c3cncnc3N[C@@H]3C[C@H](COS(N)(=O)=O)[C@@H](O)C3)cc2C2(C1)NCCc1ccc(Cl)cc12` (some centres unmarked) [Compound 112], the IC50 (class symbols) was at most 50 nM.
As to `CN1Cc2sc(C(=O)c3cncnc3N[C@@H]3C[C@H](COS(N)(=O)=O)[C@@H](O)C3)cc2[C@@]2(C1)NCCc1ccc(Cl)cc12` [Compound 113], for the setting “numeric values”, the IC50 was over 1000 nM.
The same measure, in the same setting: the result for `CN1Cc2sc(C(=O)c3cncnc3N[C@@H]3C[C@H](COS(N)(=O)=O)[C@@H](O)C3)cc2[C@]2(C1)NCCc1ccc(Cl)cc12` [Compound 114] reads 22.8 nM.
Consider `NS(=O)(=O)OC[C@H]1C[C@@H](Nc2ncncc2C(=O)c2cc3c(s2)CN(C2CC2)CC32NCCc3ccc(Cl)cc32)C[C@@H]1O` (some centres unmarked) [Compound 115], for which, where the note is “class symbols”, the half-maximal inhibitory concentration (IC50) was at most 50 nM.
For `NS(=O)(=O)OC[C@H]1C[C@@H](Nc2ncncc2C(=O)c2cc3c(s2)CN(C2CC2)C[C@@]32NCCc3ccc(Cl)cc32)C[C@@H]1O` [Compound 116], the IC50 (numeric values) was over 1000 nM.
Still for that read-out and setting: the result for `NS(=O)(=O)OC[C@H]1C[C@@H](Nc2ncncc2C(=O)c2cc3c(s2)CN(C2CC2)C[C@]32NCCc3ccc(Cl)cc32)C[C@@H]1O` [Compound 117] reads 19.1 nM.
Take `NS(=O)(=O)OC[C@H]1C[C@@H](Nc2ncncc2C(=O)c2cc3c(s2)CNCC32NCCc3ccc(Cl)cc32)C[C@@H]1O` (some centres unmarked) [Compound 118]: for the setting “class symbols”, the IC50 lay in the range of 50 to 200 nM.
Consider `NS(=O)(=O)OC[C@H]1C[C@@H](Nc2ncncc2C(=O)c2cc3c(s2)CNC[C@@]32NCCc3ccc(Cl)cc32)C[C@@H]1O` [Compound 119], for which the 50% inhibitory concentration (IC50) (class symbols) is over 200 nM.
The same measure, in the same setting: the same measure for `NS(=O)(=O)OC[C@H]1C[C@@H](Nc2ncncc2C(=O)c2cc3c(s2)CNC[C@]32NCCc3ccc(Cl)cc32)C[C@@H]1O` [Compound 120]: 50 to 200 nM.
The same measure, in the same setting: the result for `NS(=O)(=O)OC[C@H]1C[C@@H](Nc2ncncc2C(=O)c2nc3c(s2)CCCC32NCCc3ccc(Cl)cc32)C[C@@H]1O` (some centres unmarked) [Compound 121] reads over 200 nM; that for `NS(=O)(=O)OC[C@H]1C[C@@H](Nc2ncncc2C(=O)c2nc3c(s2)CCC[C@@]32NCCc3ccc(Cl)cc32)C[C@@H]1O` [Compound 122], over 200 nM; that for `NS(=O)(=O)OC[C@H]1C[C@@H](Nc2ncncc2C(=O)c2nc3c(s2)CCC[C@]32NCCc3ccc(Cl)cc32)C[C@@H]1O` [Compound 123], 50 to 200 nM.
Same read-out and setting: the result for `NS(=O)(=O)OC[C@H]1C[C@@H](Nc2ncncc2C(=O)c2nc3c(s2)COCC32NCCc3ccc(Cl)cc32)C[C@@H]1O` (some centres unmarked) [Compound 124] reads over 200 nM; that for `NS(=O)(=O)OC[C@H]1C[C@@H](Nc2ncncc2C(=O)c2nc3c(s2)COC[C@@]32NCCc3ccc(Cl)cc32)C[C@@H]1O` [Compound 125], over 200 nM; that for `NS(=O)(=O)OC[C@H]1C[C@@H](Nc2ncncc2C(=O)c2nc3c(s2)CCC[C@]32NCCc3ccc(Cl)cc32)C[C@@H]1O` [Compound 126], over 200 nM.
As for `NS(=O)(=O)OC[C@H]1C[C@@H](Nc2ncncc2C(=O)c2nc3c(s2)CSCC32NCCc3ccc(Cl)cc32)C[C@@H]1O` (some centres unmarked) [Compound 127], the IC50 (class symbols) was over 200 nM.
Turning to `NS(=O)(=O)OC[C@H]1C[C@@H](Nc2ncncc2C(=O)c2nc3c(s2)CSC[C@@]32NCCc3ccc(Cl)cc32)C[C@@H]1O` [Compound 128], where the note is “class symbols”, the IC50 was over 200 nM.
Still for that read-out and setting: the same measure for `NS(=O)(=O)OC[C@H]1C[C@@H](Nc2ncncc2C(=O)c2nc3c(s2)CSC[C@]32NCCc3ccc(Cl)cc32)C[C@@H]1O` [Compound 129]: 50 to 200 nM; for `CN1CCc2ccc(Cl)cc2C12CCCc1sc(C(=O)c3cncnc3N[C@@H]3C[C@H](COS(N)(=O)=O)[C@@H](O)C3)cc12` (some centres unmarked) [Compound 130]: 50 to 200 nM; for `CN1CCc2ccc(Cl)cc2[C@]12CCCc1sc(C(=O)c3cncnc3N[C@@H]3C[C@H](COS(N)(=O)=O)[C@@H](O)C3)cc12` [Compound 131]: over 200 nM.
`CN1CCc2ccc(Cl)cc2[C@@]12CCCc1sc(C(=O)c3cncnc3N[C@@H]3C[C@H](COS(N)(=O)=O)[C@@H](O)C3)cc12` [Compound 132]: the 50% inhibitory concentration (IC50) (class symbols) was in the range of 50 to 200 nM.
On the same count and under the same terms, the result for `NS(=O)(=O)OC[C@H]1C[C@@H](Nc2ncncc2C(=O)c2cc3c(s2)CCCC32NCCc3cnc(Cl)cc32)C[C@@H]1O` (some centres unmarked) [Compound 133] reads 50 to 200 nM.
On the same count and under the same terms, the result for `NS(=O)(=O)OC[C@H]1C[C@@H](Nc2ncncc2C(=O)c2cc3c(s2)CCC[C@@]32NCCc3cnc(Cl)cc32)C[C@@H]1O` [Compound 134] reads over 200 nM.
The same measure, in the same setting: the same measure for `NS(=O)(=O)OC[C@H]1C[C@@H](Nc2ncncc2C(=O)c2cc3c(s2)CCC[C@]32NCCc3cnc(Cl)cc32)C[C@@H]1O` [Compound 135]: at most 50 nM; for `NS(=O)(=O)CC[C@H]1C[C@@H](Nc2ncncc2C(=O)c2cc3c(s2)CCCC32NCCc3ccc(Cl)nc32)C[C@@H]1O` (some centres unmarked) [Compound 136]: at most 50 nM; for `NS(=O)(=O)OC[C@H]1C[C@@H](Nc2ncncc2C(=O)c2cc3c(s2)CCC[C@]32NCCc3ccc(Cl)nc32)C[C@@H]1O` [Compound 138]: at most 50 nM.
With `NS(=O)(=O)OC[C@H]1C[C@@H](Nc2ncncc2C(=O)c2cc3c(s2)CCCC32NCCc3ncc(Cl)cc32)C[C@@H]1O` (some centres unmarked) [Compound 139], the IC50 (class symbols) lay within 50 to 200 nM.
Consider `NS(=O)(=O)OC[C@H]1C[C@@H](Nc2ncncc2C(=O)c2cc3c(s2)CCC[C@@]32NCCc3ncc(Cl)cc32)C[C@@H]1O` [Compound 140], for which the 50% inhibitory concentration (IC50) (class symbols) is over 200 nM.

The record behind these values is US20260035382A1, “COMPOUNDS AS SUMO ACTIVATING ENZYME INHIBITORS” (WIGEN BIOMEDICINE TECHNOLOGY (SHANGHAI) CO., LTD., priority 2022, published 2026).
